Measured values reported in US5068064A, “N-substituted lauramides, their preparation and compositions in which they are present” (Sanofi, priority 1989, dated 1991).
In brackets after ≈: the same amount, converted by molar mass. Where a name gives a salt, the structure may show the parent alone.

Tests used:
[1] = test system: Escherichia coli CIP 54127; assay: Minimum bactericidal concentration, first method (30 min contact), E. coli; assay type: cell-based; conditions: CIP54127, 0.5 h, contact time 30 minutes
Excerpt: (§1) In the two methods, a bacterial inoculum is brought into contact with different dilutions of the product for a determined period of time.
(§2) When the contact period has ended, an aliquot of the mixture of bacterial suspension and product is taken and brought into contact with an agent for neutralizing the bacterial activity of the mixture, either in a solid medium or in a liquid medium. The bactericidal activity of the product, expressed either as a concentration or as a percentage of active principle, corresponds to an absence of bacterial growth.
(§3) The first method makes it possible to define a minimum bactericidal concentration (MBC) or minimum fungicidal concentration (MFC), expressed in μg/ml. The contact time between product and bacterial suspension is 30 minutes. The neutralizer is included in agar.
(§4) The CIP bacterial strains chosen for the study, which are available from the Institut Pasteur, are:
(§5) 3. Escherichia coli CIP 54127
(§6) The strains are maintained on Tryptic Soy Agar® (TSA) marketed by Difco.
(§7) After 24 hours of culture at 37° C., the microbial growth is harvested with the aid of glass beads and 10 ml of diluent containing 1 g of tryptone and 8.5 g of sodium chloride in 1000 ml of distilled water. The suspension formed is shaken and the percentage transmission of light at 620 nm is measured in a spectrophotometer:
(§8) The bacterial inoculum corresponds to a 1:20 dilution of this bacterial suspension.
(§9) Plates containing cupules receive different dilutions of the test product. These dilutions of the test product are brought into contact with the different bacterial suspensions using a multiple site inoculator. After a contact time of 30 minutes, aliquots are transferred with this inoculator to the surface of an agar medium (TSA) placed in Petri dishes containing an activity neutralizer, namely 20 g of lubrol W, 2.5 g of Tween 80, 2.5 g of sodium thiosulfate and 1% of egg yolk in 1000 ml of TSA (Difco). A control for the efficacy of the neutralizer is prepared for each test product by depositing an aliquot of the dilution of the test product on the surface of the culture medium. After drying, the corresponding inoculum is deposited in the same place. An inoculum control is prepared on agar medium with and without neutralizer. The results are read off after 48 hours of incubation at 37° C.
(§10) They indicate the minimum bactericidal concentrations (MBC) for strains 1, 2, 3 and 4 and the minimum fungicidal concentrations (MFC) for strain 5.

[2] = test system: Mycobacterium smegmatis CIP 7326; assay: Percentage of bactericidal active principle, second method (5 min contact), M. smegmatis; assay type: cell-based; conditions: destruction of 99.99%
Excerpt: as §1, §2
(§11) The second method makes it possible to define a percentage of bactericidal or fungicidal active principle by means of a simplified and automated adaptation of Afnor standards NF T 72-150 and NF T 72-170. In this method, the bactericidal activity of the product is determined with and without interfering substances. It is based on assessing the destruction of 99.99% of the initial bacteria by the product in 5 minutes. The interfering substances are of the protein type and are chosen for the actual conditions of application of this type of product. The contact time between product and bacterial suspension is 5 minutes, the neutralization step is 10 minutes and subculture is effected in a liquid medium.
(§12) The chosen bacterial strains are:
5. Mycobacterium smegmatis
as §6
(§13) The strains are harvested in a manner identical to the first method; these suspensions contain between 1.10^8 and 3.10^8 cells per milliliter. Appropriate dilutions make it possible to have a suspension containing 2 to 6.10^3 cells per milliliter.
(§14) The experiment is performed in microtiter plates; it comprises two steps. The first step, called the preliminary test, checks that the product is indeed neutralized. In the test proper, the different dilutions of the product are brought into contact with 2 to 6.10^3 cells per milliliter of the bacterial suspension in the second row of the microtiter plate. After a contact time of 5 minutes, an aliquot is transferred to the third row containing the neutralizer adapted to the product and to the strain. After a contact time of 10 minutes, aliquots are transferred to the last 5 rows containing Tryptic Soy Broth® (TSB) from Difco.
(§15) The interfering substances tested are a mixture of albumin and yeast extract. In the first row of the microplate, these proteins are brought into contact for 5 minutes with the different dilutions of the product. After this step, the same principle as above is applied: 5 minutes of contact with the germ, 10 minutes of contact with the neutralizer, transfer to TSB.

[3] = test system: Candida albicans CIP 1180; assay: Percentage of fungicidal active principle, second method (5 min contact), C. albicans; assay type: cell-based
Excerpt: as §1, §2, §11, §14, §15
The antifungal activity of the products according to the invention was also determined with and without interfering substances using the method described above. The same strain was used as for the first technique, namely Candida albicans CIP 1180. It is harvested in an identical manner to that described in the first method.

[4] = test system: Escherichia coli CIP 54127; assay: Percentage of bactericidal active principle, second method (5 min contact), E. coli; assay type: cell-based; conditions: destruction of 99.99%
Excerpt: as §1, §2, §11, §12, §5, §6, §13, §14, §15

[5] = test system: Enterococcus faecium CIP 5855; assay: Minimum bactericidal concentration, first method (30 min contact), E. faecium; assay type: cell-based; conditions: CIP5855, 0.5 h, contact time 30 minutes
Excerpt: as §1, §2, §3, §4, §6, §7, §8, §9, §10

[6] = test system: Pseudomonas aeruginosa CIP A22; assay: Minimum bactericidal concentration, first method (30 min contact), P. aeruginosa; assay type: cell-based; conditions: CIPA22, 0.5 h, contact time 30 minutes
Excerpt: as §1, §2, §3, §4
4. Psuedomonas aeruginosa
as §6, §7, §8, §9, §10

[7] = test system: Staphylococcus aureus CIP 53154; assay: Minimum bactericidal concentration, first method (30 min contact), S. aureus; assay type: cell-based; conditions: CIP53154, 0.5 h, contact time 30 minutes
Excerpt: as §1, §2, §3, §4
(§16) 1. Staphylococcus aureus
as §6, §7, §8, §9, §10

[8] = test system: Candida albicans CIP 1180; assay: Minimum fungicidal concentration, first method (30 min contact), C. albicans; assay type: cell-based; conditions: CIP1180, 0.5 h, contact time 30 minutes
Excerpt: as §1, §2, §3, §9
The antifungal activity of the products according to the invention was also determined using the method described above. A representative strain of yeast was selected for the study: Candida albicans CIP 1180 (strain 5).
This is maintained on Sabouraud's Dextrose Agar marketed by Difco. The technique is identical to that described for studying the antibacterial activity. After 48 hours of culture at 37° C., the microbial growth is harvested with the aid of glass beads and 5 ml of diluent containing 1 g of tryptone and 8.5 g of sodium chloride in 1000 ml of distilled water; a further 5 ml of the diluent are then added. This suspension gives a percentage transmission of light at 620 nm of 2 to 3% in a spectrophotometer.
The inoculum corresponds to a 1:10 dilution of this microbial suspension. A 1:100 dilution of this suspension, observed between slide and cover glass through a No. 40 microscope objective, must show 10 cells per field, which corresponds to 1,000,000 yeasts per ml.
as §10

[9] = test system: Enterococcus faecium CIP 5855; assay: Percentage of bactericidal active principle, second method (5 min contact), E. faecium; assay type: cell-based; conditions: destruction of 99.99%
Excerpt: as §1, §2, §11, §12, §6, §13, §14, §15

[10] = test system: Pseudomonas aeruginosa CIP A22; assay: Percentage of bactericidal active principle, second method (5 min contact), P. aeruginosa; assay type: cell-based; conditions: destruction of 99.99%
Excerpt: as §1, §2, §11, §12
4. Pseudomonas aeruginosa
as §6, §13, §14, §15

[11] = test system: Staphylococcus aureus CIP 53154; assay: Percentage of bactericidal active principle, second method (5 min contact), S. aureus; assay type: cell-based; conditions: destruction of 99.99%
Excerpt: as §1, §2, §11, §12, §16, §6, §13, §14, §15

[12] = Product solubility; conditions: for solubility: water
[13] = test system: S. aureus, E. faecium, E. coli, P. aeruginosa, C. albicans; assay: First method, bactericidal and fungicidal activity over all strains (Table II); assay type: cell-based; conditions: contact time 30 minutes
Excerpt: as §1, §2, §3
Plates containing cupules receive different dilutions of the test product. These dilutions of the test product are brought into contact with the different bacterial suspensions using a multiple site inoculator. […] The results are read off after 48 hours of incubation at 37° C.
The antifungal activity of the products according to the invention was also determined using the method described above. […]

[14] = Simple: without interfering substances, * activity limited to the zone indicated
[15] = with proteins as interfering substances
[16] = Simple: without interfering substances

Product solubility ([12]; in TEG (tetraethylene glycol)) [%]	solubility [12] [mg/mL]	SMILES	MBC [1] [µg/mL]	Bactericidal activity, results in percentage of active principle, M. smegmatis [2, 14]	Bactericidal activity, results in percentage of active principle, M. smegmatis [2, 15]	Fungicidal activity, results in percentage of active principle, C. albicans [3, 16]	Fungicidal activity, results in percentage of active principle, C. albicans [3, 15]	Bactericidal activity, results in percentage of active principle, E. coli [4, 16]	Bactericidal activity, results in percentage of active principle, E. coli [4, 15]	MBC [5] [µg/mL]	MBC [6] [µg/mL]	MBC [7] [µg/mL]	MFC [8] [µg/mL]	Bactericidal activity, results in percentage of active principle, E. faecium [9, 16]	Bactericidal activity, results in percentage of active principle, E. faecium [9, 15]	Bactericidal activity, results in percentage of active principle, P. aeruginosa [10, 16]	Bactericidal activity, results in percentage of active principle, P. aeruginosa [10, 15]	Bactericidal activity, results in percentage of active principle, S. aureus [11, 14]	Bactericidal activity, results in percentage of active principle, S. aureus [11, 15]	Ranking of MBC and MFC among the products [13]
–	–	CCCCCCCCCCCC(=O)NCCN1CCC(Cc2ccccc2)CC1.Cl [SR 44944 A, N-[2-(4-Benzylpiperidino)ethyl]lauramide hydrochloride]	10	> 0.5 percentage of active principle	0.06 percentage of active principle	0.01 percentage of active principle	0.06 percentage of active principle	0.01 percentage of active principle	< 0.01 percentage of active principle	10	50	10	10	< 0.01 percentage of active principle	0.03 percentage of active principle	< 0.01 percentage of active principle	0.25 percentage of active principle	< 0.01 percentage of active principle	0.1 percentage of active principle	–
1	–	CCCCCCCCCCCC(=O)NCCCN1CCC(Cc2ccccc2)CC1 [SR 45320 A]	10 (≈ 24.1 µM)	–	0.05 percentage of active principle	0.005 percentage of active principle	0.05 percentage of active principle	0.01 percentage of active principle	0.05 percentage of active principle	10 (≈ 24.1 µM)	10 (≈ 24.1 µM)	10 (≈ 24.1 µM)	10 (≈ 24.1 µM)	< 0.001 percentage of active principle	0.1 percentage of active principle	0.005 percentage of active principle	> 0.5 percentage of active principle	0.005 percentage of active principle	0.05 percentage of active principle	lowest MBC and MFC
–	> 50	CCCCCCCCCCCC(=O)NCCN(C)Cc1ccccc1 [SR 45525]	10 (≈ 28.9 µM)	–	0.1 percentage of active principle	0.05 percentage of active principle	0.5 percentage of active principle	0.005 percentage of active principle	0.1 percentage of active principle	10 (≈ 28.9 µM)	50 (≈ 144 µM)	50 (≈ 144 µM)	50 (≈ 144 µM)	0.01 percentage of active principle	0.5 percentage of active principle	0.005 percentage of active principle	0.5 percentage of active principle	0.05 percentage of active principle	0.5 percentage of active principle	–
–	> 50	CCCCCCCCCCCC(=O)NCCCN(C)Cc1ccccc1 [SR 45583 A, N-(3-Benzylmethylaminopropyl)lauramide hydrochloride]	10	0.01 percentage of active principle	0.05 percentage of active principle	0.05 percentage of active principle	0.1 percentage of active principle	0.05 percentage of active principle	0.1 percentage of active principle	10	50	50	50	0.01 percentage of active principle	0.05 percentage of active principle	0.01 percentage of active principle	0.5 percentage of active principle	0.05 percentage of active principle	0.5 percentage of active principle	–
